# In patent US20230150970A1, “AMINOPYRIMIDINE DERIVATIVES AND THEIR USE AS ARYL HYDROCARBON RECEPTOR MODULATORS” (DONG-A ST CO., LTD., priority 2020, published 2023):
# Molecular target: T1, AhR (Homo sapiens, UniProt P35869)
# T1 sequence (P35869 11-848): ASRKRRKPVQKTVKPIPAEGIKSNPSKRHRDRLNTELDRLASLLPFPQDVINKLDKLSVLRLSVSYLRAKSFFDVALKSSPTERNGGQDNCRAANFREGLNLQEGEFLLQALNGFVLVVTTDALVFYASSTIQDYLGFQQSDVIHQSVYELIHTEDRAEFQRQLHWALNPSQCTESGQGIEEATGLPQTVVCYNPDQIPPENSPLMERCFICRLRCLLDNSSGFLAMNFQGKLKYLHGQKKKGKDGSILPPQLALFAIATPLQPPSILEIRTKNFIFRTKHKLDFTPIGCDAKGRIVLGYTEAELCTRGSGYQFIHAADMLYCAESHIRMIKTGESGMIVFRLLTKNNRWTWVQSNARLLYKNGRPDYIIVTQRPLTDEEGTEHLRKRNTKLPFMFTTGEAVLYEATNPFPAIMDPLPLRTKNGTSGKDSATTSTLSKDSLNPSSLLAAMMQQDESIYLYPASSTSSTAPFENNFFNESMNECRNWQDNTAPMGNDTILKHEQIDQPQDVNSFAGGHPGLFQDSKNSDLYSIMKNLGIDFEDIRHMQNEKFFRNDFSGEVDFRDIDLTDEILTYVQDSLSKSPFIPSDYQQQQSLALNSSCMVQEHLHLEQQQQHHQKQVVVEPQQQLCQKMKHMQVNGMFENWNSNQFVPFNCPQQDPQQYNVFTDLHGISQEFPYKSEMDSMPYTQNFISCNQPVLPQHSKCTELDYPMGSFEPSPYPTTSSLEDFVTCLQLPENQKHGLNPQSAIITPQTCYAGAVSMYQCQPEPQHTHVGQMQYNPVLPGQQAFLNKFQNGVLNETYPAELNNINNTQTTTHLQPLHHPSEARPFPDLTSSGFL
# Assay: In Vitro Assay 1: XRE-luciferase reporter assay, antagonism in human cell line (HepG2)
# Conditions: Assay 1: AhR-Luc Human Antagonism (IC50, nM), unmarked values: kynurenine 200 μM, 6 hours
# Excerpt: In Vitro XRE-Luciferase Reporter Assay (In Vitro Assay 1, 2, 3) AhR activation leads the induction of target gene expression such as CYP1A1 and CYPIB1 by AhR binding to AhR-responsive DNA elements also known as xenobiotics responsive elements (XREs). The assay for measuring AhR activity herein is the luciferase assay using cell lines transfected with luciferase reporter plasmid containing XREs at the upstream of the reporter gene. Cells transfected with XRE-luciferase reporter (XRE-Luc), plasmid drive luciferase activity reflecting activation and inhibition of AhR in the cells. […] Kynurenine (an endogenous AhR agonist), was used to stimulate cells to test antagonistic properties of the compounds. The half-maximal inhibitory concentration (IC50), or half-maximal effective concentration (EC50), value was calculated using nonlinear regression (four parameters), with Prism8.0 software (GraphPad).
# In Vitro Assay 1: Antagonism in Human Cell Line
# HepG2 (human hepatoma cell line) cell line with a XRE-luciferase reporter either transiently or stably (Invivogen) were plated in complete medium and incubated at 37° C. in a CO2 incubator. After 24 hours, cells were treated with kynurenine (50* or 200 μM) alone (negative control) or with test compounds for 6 hours. Luciferase activity was measured with a commercial kit such as the Promega Luciferase kit or Invivogen Luciferase kit. Relative luciferase activity (Firefly/Nano-Luc) was used to calculate IC50 values. […] (IC50 values are grouped as A, B, C and D, whereby A: IC50<0.01 μM; B: 0.01<IC50<0.1 μM; C: 0.1<IC50<1.0 μM; D: IC50>1.0 μM)
row,IC50 [nM],Compound
1,10 to 100,"OCC1CCN(c2cc(-c3ccc(OC(F)(F)F)cc3)nc(-c3cccnc3)n2)CC1 [Example 227, (1-(2-(pyridin-3-yl)-6-(4-(trifluoromethoxy)phenyl)pyrimidin-4-yl)piperidin-4-yl)methanol]"

# Same assay, conditions: Assay 1: AhR-Luc Human Antagonism (IC50, nM), values marked *: kynurenine 50 μM, 6 hours
row,IC50 [nM],Compound
1,100 to 1000,"CN1CCC(CNc2cc(-c3ccc(Cl)cc3)nc(-c3cccnc3)n2)CC1 [Example 193, 6-(4-chlorophenyl)-N-((1-methylpiperidin-4-yl)methyl)-2-(pyridin-3-yl)pyrimidin-4-amine]"
2,< 10,"O[C@@H]1CCN(c2cc(-c3ccc(Cl)cc3)nc(-c3cccnc3)n2)C1 [Example 194, (R)-1-(6-(4-chlorophenyl)-2-(pyridin-3-yl)pyrimidin-4-yl)pyrrolidin-3-ol]"
3,> 1000,"COC[C@@H]1CCCN1Nc1cc(-c2ccc(Cl)cc2)nc(-c2cccnc2)n1 [Example 195, (S)-6-(4-chlorophenyl)-N-(2-(methoxymethyl)pyrrolidin-1-yl)-2-(pyridin-3-yl)pyrimidin-4-amine]"
4,10 to 100,"F[C@H]1CCN(c2cc(-c3ccc(Cl)cc3)nc(-c3cccnc3)n2)C1 [Example 196, (S)-4-(4-chlorophenyl)-6-(3-fluoropyrrolidin-1-yl)-2-(pyridin-3-yl)pyrimidine]"
5,> 1000,"FC(F)(F)C1CCCN1c1cc(-c2ccc(Cl)cc2)nc(-c2cccnc2)n1 (centres unmarked) [Example 197, 4-(4-chlorophenyl)-2-(pyridin-3-yl)-6-(2-(trifluoromethyl)pyrrolidin-1-yl)pyrimidine]"
6,10 to 100,"FC1(F)CCN(c2cc(-c3ccc(Cl)cc3)nc(-c3cccnc3)n2)C1 [Example 198, 4-(4-chlorophenyl)-6-(3,3-difluoropyrrolidin-1-yl)-2-(pyridin-3-yl)pyrimidine]"
7,100 to 1000,"Clc1ccc(-c2cc(N3CCC(N4CCOCC4)C3)nc(-c3cccnc3)n2)cc1 (centres unmarked) [Example 199, 4-(1-(6-(4-chlorophenyl)-2-(pyridin-3-yl)pyrimidin-4-yl)pyrrolidin-3-yl)morpholine]"
8,> 1000,"O=C1CCC(CNc2cc(-c3ccc(Cl)cc3)nc(-c3cccnc3)n2)N1 (centres unmarked) [Example 200, 5-(((6-(4-chlorophenyl)-2-(pyridin-3-yl)pyrimidin-4-yl)amino)methyl)pyrrolidin-2-one]"
9,> 1000,"CO[C@H]1CN(C)C[C@@H]1Nc1cc(-c2ccc(Cl)cc2)nc(-c2cccnc2)n1 [Example 202, 6-(4-chlorophenyl)-N-((3S,4S)-4-methoxy-1-methylpyrrolidin-3-yl)-2-(pyridin-3-yl)pyrimidin-4-amine]"
10,100 to 1000,"Clc1ccc(-c2cc(N[C@@H]3CCCNC3)nc(-c3cccnc3)n2)cc1 [Example 203, (R)-6-(4-chlorophenyl)-N-(piperidin-3-yl)-2-(pyridin-3-yl)pyrimidin-4-amine]"
11,> 1000,"Clc1ccc(-c2cc(NC3CCCNC3)nc(-c3cccnc3)n2)cc1 (centres unmarked) [Example 204, 6-(4-chlorophenyl)-N-(piperidin-3-yl)-2-(pyridin-3-yl)pyrimidin-4-amine]"
12,> 1000,"F[C@@H]1CNCC[C@H]1Nc1cc(-c2ccc(Cl)cc2)nc(-c2cccnc2)n1 [Example 205, 6-(4-chlorophenyl)-N-((3R,4R)-3-fluoropiperidin-4-yl)-2-(pyridin-3-yl)pyrimidin-4-amine]"
13,> 1000,"Clc1ccc(-c2cc(NC[C@H]3CCNC3)nc(-c3cccnc3)n2)cc1 [Example 206, (S)-6-(4-chlorophenyl)-2-(pyridin-3-yl)-N-(pyrrolidin-3-ylmethyl)pyrimidin-4-amine]"
14,> 1000,"COC(=O)[C@H]1C[C@@H](Nc2cc(-c3ccc(Cl)cc3)nc(-c3cccnc3)n2)CN1 [Example 207, methyl (2R,4R)-4-((6-(4-chlorophenyl)-2-(pyridin-3-yl)pyrimidin-4-yl)amino)pyrrolidine-2-carboxylate]"
15,> 1000,"O=C(O)[C@H]1C[C@H](Nc2cc(-c3ccc(Cl)cc3)nc(-c3cccnc3)n2)CN1 [Example 208, (2R,4S)-4-((6-(4-chlorophenyl)-2-(pyridin-3-yl)pyrimidin-4-yl)amino)pyrrolidine-2-carboxylic acid]"
16,10 to 100,"ClC[C@@H]1CCN(c2cc(-c3ccc(Cl)cc3)nc(-c3cccnc3)n2)C1 [Example 210, (R)-4-(3-(chloromethyl)pyrrolidin-1-yl)-6-(4-chlorophenyl)-2-(pyridin-3-yl)pyrimidine]"
17,10 to 100,"ClC[C@H]1CCN(c2cc(-c3ccc(Cl)cc3)nc(-c3cccnc3)n2)C1 [Example 211, (S)-4-(3-(chloromethyl)pyrrolidin-1-yl)-6-(4-chlorophenyl)-2-(pyridin-3-yl)pyrimidine]"
18,10 to 100,"N#CC1CCN(c2cc(-c3ccc(Cl)cc3)nc(-c3cccnc3)n2)C1 (centres unmarked) [Example 212, 1-(6-(4-chlorophenyl)-2-(pyridin-3-yl)pyrimidin-4-yl)pyrrolidine-3-carbonitrile]"
19,10 to 100,"CC[C@@H](O)CNc1cc(-c2ccc(Cl)cc2)nc(-c2cccnc2)n1 [Example 213, (R)-1-((6-(4-chlorophenyl)-2-(pyridin-3-yl)pyrimidin-4-yl)amino)butan-2-ol]"
20,10 to 100,"O[C@@H]1CC[C@H](Nc2cc(-c3ccc(Cl)cc3)nc(-c3cccnc3)n2)C1 [Example 214, (1R,3S)-3-((6-(4-chlorophenyl)-2-(pyridin-3-yl)pyrimidin-4-yl)amino)cyclopentan-1-ol]"
21,< 10,"COCCN1CCN(c2cc(-c3ccc(Cl)cc3)nc(-c3cccnc3)n2)CC1 [Example 218, 4-(4-chlorophenyl)-6-(4-(2-methoxyethyl)piperazin-1-yl)-2-(pyridin-3-yl)pyrimidine]"
22,< 10,"O[C@@H]1CCN(c2cc(-c3ccc(Cl)cc3)nc(-c3cccnc3)n2)C[C@@H]1F [Example 219, (3S,4R)-1-(6-(4-chlorophenyl)-2-(pyridin-3-yl)pyrimidin-4-yl)-3-fluoropiperidin-4-ol]"
23,10 to 100,"O[C@H]1CCN(c2cc(-c3ccc(Cl)cc3)nc(-c3cccnc3)n2)C[C@H]1F [Example 220, (3R,4S)-1-(6-(4-chlorophenyl)-2-(pyridin-3-yl)pyrimidin-4-yl)-3-fluoropiperidin-4-ol]"
24,10 to 100,"O[C@@H]1CCN(c2cc(-c3ccc(Cl)cc3)nc(-c3cccnc3)n2)C[C@H]1F [Example 221, (3R,4R)-1-(6-(4-chlorophenyl)-2-(pyridin-3-yl)pyrimidin-4-yl)-3-fluoropiperidin-4-ol]"
25,< 10,"O[C@H]1CCN(c2cc(-c3ccc(Cl)cc3)nc(-c3cccnc3)n2)C[C@@H]1F [Example 222, (3S,4S)-1-(6-(4-chlorophenyl)-2-(pyridin-3-yl)pyrimidin-4-yl)-3-fluoropiperidin-4-ol]"
26,< 10,"O=C(CO)N1CCN(c2cc(-c3ccc(Cl)cc3)nc(-c3cccnc3)n2)CC1 [Example 223, 1-(4-(6-(4-chlorophenyl)-2-(pyridin-3-yl)pyrimidin-4-yl)piperazin-1-yl)-2-hydroxyethan-1-one]"
27,< 10,"OCC1CCN(c2cc(-c3ccc(Cl)cc3)nc(-c3cccnc3)n2)CC1O (centres unmarked) [Example 233, 1-(6-(4-chlorophenyl)-2-(pyridin-3-yl)pyrimidin-4-yl)-4-(hydroxymethyl)piperidin-3-ol]"
28,< 10,"O[C@@H]1CN(c2cc(-c3ccc(Cl)cc3)nc(-c3cccnc3)n2)C[C@H]1F [Example 234, (3R,4R)-1-(6-(4-chlorophenyl)-2-(pyridin-3-yl)pyrimidin-4-yl)-4-fluoropyrrolidin-3-ol]"
